Drawing on ChEMBL document CHEMBL4732096, “Design, synthesis and evaluation of calix[4]arene-based carbonyl amide derivatives with antitumor activities” (Eur J Med Chem, 2021), this text covers IC50 and inhibition for 14 compounds.

Molecules are shown by their SMILES. A value given as a limit tells only on which side of the number the result lay.

The IC50 is the concentration at which inhibition is half-maximal. A word on the inhibition: it is the share of the control response that was lost under treatment.

Series [1] relates to A549. The series is described as follows: Antiproliferative activity against human A549 cells assessed as inhibition of cell growth measured after 72 hrs by MTT assay. The note with it: A549, 72 h. Type of series: functional, cell-based.
In series [2] the test system is MDA-MB-231. The series is described as follows: Antiproliferative activity against human MDA-MB-231 cells assessed as inhibition of cell growth measured after 72 hrs by MTT assay. Type of series: functional, cell-based. The conditions noted are these: MDA-MB-231, 72 h. (Tetrazolium dyes change colour on reduction, which living cells bring about.)
For the next series, the system named is HepG2. The series is described as follows: Antiproliferative activity against human HepG2 cells assessed as inhibition of cell growth at 10 uM measured after 72 hrs by MTT assay relative to control. Type of series: functional.
Series [3] is described as follows: Cytotoxicity against HUVEC cells assessed as inhibition of cell growth at 10 uM measured after 72 hrs by MTT assay. The conditions noted are these: human. Type of series: cell-based.
In the next series the test system is HT-29. In words: Antiproliferative activity against human HT-29 cells assessed as inhibition of cell growth at 10 uM measured after 72 hrs by MTT assay relative to control. Type of series: functional.
Series [4] concerns MDA-MB-231. The series is described as follows: Antiproliferative activity against human MDA-MB-231 cells assessed as inhibition of cell growth at 10 uM measured after 72 hrs by MTT assay relative to control. Type of series: functional.
For series [5], the system named is A549. In words: Antiproliferative activity against human A549 cells assessed as inhibition of cell growth at 10 uM measured after 72 hrs by MTT assay relative to control. Type of series: functional.
For another series, the system named is MCF7. The series is described as follows: Antiproliferative activity against human MCF7 cells assessed as inhibition of cell growth at 10 uM measured after 72 hrs by MTT assay relative to control. Type of series: functional.

Turning to `CC(C)(C)c1cc2c(O)c(c1)Cc1cc(C(C)(C)C)cc(c1OC/C=C/C(=O)NCCO)Cc1cc(C(C)(C)C)cc(c1O)Cc1cc(C(C)(C)C)cc(c1OC/C=C/C(=O)NCCO)C2`, the IC50 with A549 [1] is 6.29 µM; in the series with MDA-MB-231 [2] it was 5.46 µM. The inhibition at 10 µM came out at 19.8% in the series on HepG2; 27.8% in the series with HT-29; 35% in the series on MDA-MB-231 [4]; 63.5% with A549 [5]; 38% in the series with MCF7. Also, the inhibition at 72 h, 10 µM in series [3] worked out at 8.9%.

In the case of `CC(C)(C)c1cc2c(O)c(c1)Cc1cc(C(C)(C)C)cc(c1OCCCCCC(=O)NCCCCCO)Cc1cc(C(C)(C)C)cc(c1O)Cc1cc(C(C)(C)C)cc(c1OCCCCCC(=O)NCCCCCO)C2`, the IC50 was above 100 µM in the series on A549 [1] and 97.6 µM in the series with MDA-MB-231 [2]. The inhibition at 10 µM with HepG2 was 21.9%; in the series with HT-29 it was 21.2%; with MDA-MB-231 [4] it was 31.2%; in the series on A549 [5] it was 46.1%; in the series on MCF7 it was below 0%. Further, the inhibition at 72 h, 10 µM in series [3] is below 0%.

Regarding `CC(C)(C)c1cc2c(O)c(c1)Cc1cc(C(C)(C)C)cc(c1OCCCC(=O)NCCCO)Cc1cc(C(C)(C)C)cc(c1O)Cc1cc(C(C)(C)C)cc(c1OCCCC(=O)NCCCO)C2`, the figures for the IC50 in the series with A549 [1] and in the series with MDA-MB-231 [2] were 10.3 µM and 17.9 µM, respectively. Further, the inhibition at 10 µM in the series on HepG2 is 24.4%; in the series on HT-29, 35.3%; with MDA-MB-231 [4], 29.5%; with A549 [5], 56.4%; with MCF7 it was below 0%. Moreover, in series [3], the inhibition at 72 h, 10 µM is below 0%.

Turning to `CC(C)(C)c1cc2c(O)c(c1)Cc1cc(C(C)(C)C)cc(c1OC/C=C/C(=O)NCCCO)Cc1cc(C(C)(C)C)cc(c1O)Cc1cc(C(C)(C)C)cc(c1OC/C=C/C(=O)NCCCO)C2`, the IC50 worked out at 3.59 µM with A549 [1] and 5.2 µM in the series with MDA-MB-231 [2]. For the same compound, the inhibition at 10 µM in the series with HepG2 came to 9.5%; with HT-29, 36.1%; with MDA-MB-231 [4], 61.5%; in the series with A549 [5] it was 63.3%; in the series on MCF7, 48.2%. Moreover, the inhibition at 72 h, 10 µM in series [3] worked out at 38.8%.

In the case of `CC(C)(C)c1cc2c(O)c(c1)Cc1cc(C(C)(C)C)cc(c1OCCCC(=O)NCCCCCO)Cc1cc(C(C)(C)C)cc(c1O)Cc1cc(C(C)(C)C)cc(c1OCCCC(=O)NCCCCCO)C2`, the IC50 in the series on A549 [1] came out at 7.64 µM; in the series on MDA-MB-231 [2], 9.15 µM. Besides, the inhibition at 10 µM in the series on HepG2 is 25%; with HT-29, 33.1%; in the series with MDA-MB-231 [4], 34.4%; with A549 [5], 50.5%; in the series with MCF7, below 0%. Moreover, the inhibition at 72 h, 10 µM in series [3] was determined as 5.8%.

For `CC(C)(C)c1cc2c(O)c(c1)Cc1cc(C(C)(C)C)cc(c1OCCCCCC(=O)N(CCO)CCO)Cc1cc(C(C)(C)C)cc(c1O)Cc1cc(C(C)(C)C)cc(c1OCCCCCC(=O)N(CCO)CCO)C2`, the concentration for half-maximal inhibition (IC50) in the series with A549 [1] and with MDA-MB-231 [2] was above 100 µM throughout. The inhibition at 10 µM in the series on HepG2 came to 17.3%; with HT-29, 22.2%; with MDA-MB-231 [4] it was 34.5%; with A549 [5], 46.8%; in the series on MCF7, 1.44%. Further, the inhibition at 72 h, 10 µM in series [3] is below 0%.

For `CC(C)(C)c1cc2c(O)c(c1)Cc1cc(C(C)(C)C)cc(c1OC/C=C/C(=O)N(CCO)CCO)Cc1cc(C(C)(C)C)cc(c1O)Cc1cc(C(C)(C)C)cc(c1OC/C=C/C(=O)N(CCO)CCO)C2`, the IC50 with A549 [1] came out at 7.04 µM; with MDA-MB-231 [2], 6.77 µM. The inhibition at 10 µM with HepG2 came to 41%; in the series on HT-29, 39.8%; in the series with MDA-MB-231 [4] it was 58.8%; in the series on A549 [5] it was 82%; in the series on MCF7, 80.2%. Further, in series [3], the inhibition at 72 h, 10 µM is below 0%.

Take `CC(C)(C)c1cc2c(O)c(c1)Cc1cc(C(C)(C)C)cc(c1OCCCC(=O)N(CCO)CCO)Cc1cc(C(C)(C)C)cc(c1O)Cc1cc(C(C)(C)C)cc(c1OCCCC(=O)N(CCO)CCO)C2`: the IC50 in the series with A549 [1] was 3.81 µM; in the series with MDA-MB-231 [2], 5.81 µM. Besides, the inhibition at 10 µM is 62.8% with HepG2; 61.5% in the series with HT-29; 80% in the series on MDA-MB-231 [4]; 88.1% in the series with A549 [5]; 60.1% in the series on MCF7. For the same compound, in series [3], the inhibition at 72 h, 10 µM was below 0%.

Consider `CC(C)(C)c1cc2c(O)c(c1)Cc1cc(C(C)(C)C)cc(c1OC/C=C/C(=O)NCCCCCO)Cc1cc(C(C)(C)C)cc(c1O)Cc1cc(C(C)(C)C)cc(c1OC/C=C/C(=O)NCCCCCO)C2`, for which the IC50 with A549 [1] is above 100 µM; in the series on MDA-MB-231 [2] it was 94.3 µM. For the same compound, the inhibition at 10 µM in the series with HepG2 was 11.8%; in the series on HT-29 it was 23.9%; in the series on MDA-MB-231 [4], 39.5%; with A549 [5], 37.6%; in the series on MCF7, below 0%. For the same compound, the inhibition at 72 h, 10 µM in series [3] was determined as 23.8%.

For `CCC(Oc1c2cc(C(C)(C)C)cc1Cc1cc(C(C)(C)C)cc(c1O)Cc1cc(C(C)(C)C)cc(c1OC(CC)C(=O)NCCCO)Cc1cc(C(C)(C)C)cc(c1O)C2)C(=O)NCCCO` (configuration not stated), the IC50 worked out at 0.96 µM in the series on A549 [1] and 0.85 µM in the series on MDA-MB-231 [2]. The inhibition at 10 µM was 20.3% with HepG2; 41.5% in the series with HT-29; 80.1% in the series with MDA-MB-231 [4]; 80.2% with A549 [5]; below 0% in the series with MCF7. Also, the inhibition at 72 h, 10 µM in series [3] is below 0%.

With `CC(C)(C)c1cc2c(O)c(c1)Cc1cc(C(C)(C)C)cc(c1OCCCC(=O)NCCO)Cc1cc(C(C)(C)C)cc(c1O)Cc1cc(C(C)(C)C)cc(c1OCCCC(=O)NCCO)C2`, the IC50 with A549 [1] worked out at 13.7 µM; in the series on MDA-MB-231 [2] it was 11.7 µM. The inhibition at 10 µM turned out to be 28.7% in the series on HepG2; 40.1% with HT-29; 25.8% in the series on MDA-MB-231 [4]; 54.4% in the series with A549 [5]; 16.2% with MCF7. Besides, in series [3], the inhibition at 72 h, 10 µM turned out to be 57%.

Turning to `CC(Oc1c2cc(C(C)(C)C)cc1Cc1cc(C(C)(C)C)cc(c1O)Cc1cc(C(C)(C)C)cc(c1OC(C)C(=O)N(CCO)CCO)Cc1cc(C(C)(C)C)cc(c1O)C2)C(=O)N(CCO)CCO` (configuration not stated), the IC50 in the series on A549 [1] worked out at 3.75 µM; with MDA-MB-231 [2] it was 1.63 µM. Moreover, the inhibition at 10 µM was found to be 93.8% in the series with HepG2; 65.7% in the series with HT-29; 91.3% with MDA-MB-231 [4]; 91.2% in the series with A549 [5]; 96.2% in the series with MCF7. Also, in series [3], the inhibition at 72 h, 10 µM came out at 57.2%.

As for `CCC(Oc1c2cc(C(C)(C)C)cc1Cc1cc(C(C)(C)C)cc(c1O)Cc1cc(C(C)(C)C)cc(c1OC(CC)C(=O)NCCO)Cc1cc(C(C)(C)C)cc(c1O)C2)C(=O)NCCO` (configuration not stated), the IC50 with A549 [1] was found to be 2.22 µM; in the series with MDA-MB-231 [2], 0.92 µM. Besides, the inhibition at 10 µM in the series with HepG2 is 26.1%; in the series on HT-29, 32.1%; with MDA-MB-231 [4], 79.6%; in the series on A549 [5], 68.7%; in the series on MCF7, below 0%. Also, in series [3], the inhibition at 72 h, 10 µM was 34.3%.

`CC(Oc1c2cc(C(C)(C)C)cc1Cc1cc(C(C)(C)C)cc(c1O)Cc1cc(C(C)(C)C)cc(c1OC(C)C(=O)NCCCCCO)Cc1cc(C(C)(C)C)cc(c1O)C2)C(=O)NCCCCCO` (configuration not stated): the figures for the IC50 in the series with A549 [1] and in the series on MDA-MB-231 [2] were 2.98 µM and 3.26 µM, respectively. The inhibition at 10 µM was 19.8% in the series on HepG2; 49.6% with HT-29; 89.3% in the series on MDA-MB-231 [4]; 86.8% in the series on A549 [5]; below 0% with MCF7. The inhibition at 72 h, 10 µM in series [3] came to 31.8%.
